These compounds were tested on Abutilon theophrasti (assay: Post-emergence herbicidal activity (glasshouse)). Settings: application post-emergence, 1000 g/Ha, evaluated after 13 days, scale 0-5.
Assay type: in vivo
Method: (§1) Seeds of a variety of test species were sown in standard soil in pots. After 8 days cultivation (post-emergence) under controlled conditions in a glasshouse (at 24/16° C., day/night; 14 hours light; 65% humidity), the plants were sprayed with an aqueous spray solution derived from the formulation of the technical active ingredient in acetone/water (50:50) solution containing 0.5% Tween 20 (polyoxyethelyene sorbitan monolaurate, CAS RN 9005-64-5). The test plants were then grown in a glasshouse under controlled conditions (at 24/16° C., day/night; 14 hours light; 65% humidity) and watered twice daily. After 13 days, the test was evaluated (5=total damage to plant; 0=no damage to plant).
In the case of `CCO[C@@H]1C(O)N(c2cc(C(C)(C)C)on2)C(=O)N1C` (single isomer, unassigned) [Compound 1.6], the “damage to plant score, ABUTH” value is reported as 5. For `CC1C(O)N(c2cc(C(F)(F)F)n(C)n2)C(=O)N1C` (stereo not shown) [Compound 1.5, 4-hydroxy-1,5-dimethyl-3-[1-methyl-5-(trifluoromethyl)pyrazol-3-yl]imidazolidin-2-one], the “damage to plant score, ABUTH” value was 5. In the case of `CC1C(O)N(c2cc(C(F)(F)F)ccn2)C(=O)N1C` (stereo not shown) [Compound 1.2, 4-hydroxy-1,5-dimethyl-3-[4-(trifluoromethyl)-2-pyridyl]imidazolidin-2-one], the “damage to plant score, ABUTH” value is reported as 5.

These compounds were tested on Echinochloa crus-galli (assay: Post-emergence herbicidal activity (glasshouse)). Settings: application post-emergence, 1000 g/Ha, evaluated after 13 days, scale 0-5.
Assay type: in vivo
Method: as §1
In the case of `CCO[C@@H]1C(O)N(c2cc(C(C)(C)C)on2)C(=O)N1C` (single isomer, unassigned) [Compound 1.6], the “damage to plant score, ECHCG” value is reported as 5. With `CC1C(O)N(c2cc(C(F)(F)F)n(C)n2)C(=O)N1C` (stereo not shown) [Compound 1.5, 4-hydroxy-1,5-dimethyl-3-[1-methyl-5-(trifluoromethyl)pyrazol-3-yl]imidazolidin-2-one] the “damage to plant score, ECHCG” value was 5. With `CC1C(O)N(c2cc(C(F)(F)F)ccn2)C(=O)N1C` (stereo not shown) [Compound 1.2, 4-hydroxy-1,5-dimethyl-3-[4-(trifluoromethyl)-2-pyridyl]imidazolidin-2-one] the “damage to plant score, ECHCG” value was 5.

What follows are compounds tested on Alopecurus myosuroides (assay: Post-emergence herbicidal activity (glasshouse)). Settings: application post-emergence, 1000 g/Ha, evaluated after 13 days, scale 0-5.
Assay type: in vivo
Method: as §1
For `CC1C(O)N(c2cc(C(F)(F)F)n(C)n2)C(=O)N1C` (stereo not shown) [Compound 1.5, 4-hydroxy-1,5-dimethyl-3-[1-methyl-5-(trifluoromethyl)pyrazol-3-yl]imidazolidin-2-one], the “damage to plant score, ALOMY” value was 5. With `CC1C(O)N(c2cc(C(F)(F)F)ccn2)C(=O)N1C` (stereo not shown) [Compound 1.2, 4-hydroxy-1,5-dimethyl-3-[4-(trifluoromethyl)-2-pyridyl]imidazolidin-2-one] the “damage to plant score, ALOMY” value was 5.

Each compound was assayed on Amaranthus retroflexus (assay: Post-emergence herbicidal activity (glasshouse)). Settings: application post-emergence, 1000 g/Ha, evaluated after 13 days, scale 0-5.
Assay type: in vivo
Method: as §1
With `CCO[C@@H]1C(O)N(c2cc(C(C)(C)C)on2)C(=O)N1C` (single isomer, unassigned) [Compound 1.6] the “damage to plant score, AMARE” value was 5. For `CC1C(O)N(c2cc(C(F)(F)F)n(C)n2)C(=O)N1C` (stereo not shown) [Compound 1.5, 4-hydroxy-1,5-dimethyl-3-[1-methyl-5-(trifluoromethyl)pyrazol-3-yl]imidazolidin-2-one], the “damage to plant score, AMARE” value was 5. `CC1C(O)N(c2cc(C(F)(F)F)ccn2)C(=O)N1C` (stereo not shown) [Compound 1.2, 4-hydroxy-1,5-dimethyl-3-[4-(trifluoromethyl)-2-pyridyl]imidazolidin-2-one] was tested, and the “damage to plant score, AMARE” value was 5.

These compounds were tested on Setaria faberi (assay: Post-emergence herbicidal activity (glasshouse)). Settings: application post-emergence, 1000 g/Ha, evaluated after 13 days, scale 0-5.
Assay type: in vivo
Method: as §1
With `CCO[C@@H]1C(O)N(c2cc(C(C)(C)C)on2)C(=O)N1C` (single isomer, unassigned) [Compound 1.6] the “damage to plant score, SETFA” value was 5. In the case of `CC1C(O)N(c2cc(C(F)(F)F)n(C)n2)C(=O)N1C` (stereo not shown) [Compound 1.5, 4-hydroxy-1,5-dimethyl-3-[1-methyl-5-(trifluoromethyl)pyrazol-3-yl]imidazolidin-2-one], the “damage to plant score, SETFA” value is reported as 5. `CC1C(O)N(c2cc(C(F)(F)F)ccn2)C(=O)N1C` (stereo not shown) [Compound 1.2, 4-hydroxy-1,5-dimethyl-3-[4-(trifluoromethyl)-2-pyridyl]imidazolidin-2-one] was tested, and the “damage to plant score, SETFA” value was 5.

What follows are compounds tested on Zea mays (assay: Post-emergence herbicidal activity (glasshouse)). Settings: application post-emergence, 1000 g/Ha, evaluated after 13 days, scale 0-5.
Assay type: in vivo
Method: as §1
`CCO[C@@H]1C(O)N(c2cc(C(C)(C)C)on2)C(=O)N1C` (single isomer, unassigned) [Compound 1.6] was tested, and the “damage to plant score, ZEAMX” value was 4. For `CC1C(O)N(c2cc(C(F)(F)F)n(C)n2)C(=O)N1C` (stereo not shown) [Compound 1.5, 4-hydroxy-1,5-dimethyl-3-[1-methyl-5-(trifluoromethyl)pyrazol-3-yl]imidazolidin-2-one], the “damage to plant score, ZEAMX” value was 4. With `CC1C(O)N(c2cc(C(F)(F)F)ccn2)C(=O)N1C` (stereo not shown) [Compound 1.2, 4-hydroxy-1,5-dimethyl-3-[4-(trifluoromethyl)-2-pyridyl]imidazolidin-2-one] the “damage to plant score, ZEAMX” value was 4.

What follows are compounds tested on Abutilon theophrasti (assay: Pre-emergence herbicidal activity (glasshouse)). Settings: application pre-emergence, 1000 g/Ha, evaluated after 13 days, scale 0-5.
Assay type: in vivo
Method: as §1, with “After” for “After 8 days”, “for one day (pre-emergence)” for “(post-emergence)”
For `CCO[C@@H]1C(O)N(c2cc(C(C)(C)C)on2)C(=O)N1C` (single isomer, unassigned) [Compound 1.6], the “damage to plant score, ABUTH” value was 5. `CC1C(O)N(c2cc(C(F)(F)F)n(C)n2)C(=O)N1C` (stereo not shown) [Compound 1.5, 4-hydroxy-1,5-dimethyl-3-[1-methyl-5-(trifluoromethyl)pyrazol-3-yl]imidazolidin-2-one] was tested, and the “damage to plant score, ABUTH” value was 5. For `CC1C(O)N(c2cc(C(F)(F)F)ccn2)C(=O)N1C` (stereo not shown) [Compound 1.2, 4-hydroxy-1,5-dimethyl-3-[4-(trifluoromethyl)-2-pyridyl]imidazolidin-2-one], the “damage to plant score, ABUTH” value was 5.

Each compound was assayed on Echinochloa crus-galli (assay: Pre-emergence herbicidal activity (glasshouse)). Settings: application pre-emergence, 1000 g/Ha, evaluated after 13 days, scale 0-5.
Assay type: in vivo
Method: as §1, with “After” for “After 8 days”, “for one day (pre-emergence)” for “(post-emergence)”
For `CCO[C@@H]1C(O)N(c2cc(C(C)(C)C)on2)C(=O)N1C` (single isomer, unassigned) [Compound 1.6], the “damage to plant score, ECHCG” value was 4. With `CC1C(O)N(c2cc(C(F)(F)F)n(C)n2)C(=O)N1C` (stereo not shown) [Compound 1.5, 4-hydroxy-1,5-dimethyl-3-[1-methyl-5-(trifluoromethyl)pyrazol-3-yl]imidazolidin-2-one] the “damage to plant score, ECHCG” value was 4. `CC1C(O)N(c2cc(C(F)(F)F)ccn2)C(=O)N1C` (stereo not shown) [Compound 1.2, 4-hydroxy-1,5-dimethyl-3-[4-(trifluoromethyl)-2-pyridyl]imidazolidin-2-one] was tested, and the “damage to plant score, ECHCG” value was 4.

These compounds were tested on Alopecurus myosuroides (assay: Pre-emergence herbicidal activity (glasshouse)). Settings: application pre-emergence, 1000 g/Ha, evaluated after 13 days, scale 0-5.
Assay type: in vivo
Method: as §1, with “After” for “After 8 days”, “for one day (pre-emergence)” for “(post-emergence)”
With `CC1C(O)N(c2cc(C(F)(F)F)n(C)n2)C(=O)N1C` (stereo not shown) [Compound 1.5, 4-hydroxy-1,5-dimethyl-3-[1-methyl-5-(trifluoromethyl)pyrazol-3-yl]imidazolidin-2-one] the “damage to plant score, ALOMY” value was 4. `CC1C(O)N(c2cc(C(F)(F)F)ccn2)C(=O)N1C` (stereo not shown) [Compound 1.2, 4-hydroxy-1,5-dimethyl-3-[4-(trifluoromethyl)-2-pyridyl]imidazolidin-2-one] was tested, and the “damage to plant score, ALOMY” value was 4.

Each compound was assayed on Amaranthus retroflexus (assay: Pre-emergence herbicidal activity (glasshouse)). Settings: application pre-emergence, 1000 g/Ha, evaluated after 13 days, scale 0-5.
Assay type: in vivo
Method: as §1, with “After” for “After 8 days”, “for one day (pre-emergence)” for “(post-emergence)”
In the case of `CCO[C@@H]1C(O)N(c2cc(C(C)(C)C)on2)C(=O)N1C` (single isomer, unassigned) [Compound 1.6], the “damage to plant score, AMARE” value is reported as 5. In the case of `CC1C(O)N(c2cc(C(F)(F)F)n(C)n2)C(=O)N1C` (stereo not shown) [Compound 1.5, 4-hydroxy-1,5-dimethyl-3-[1-methyl-5-(trifluoromethyl)pyrazol-3-yl]imidazolidin-2-one], the “damage to plant score, AMARE” value is reported as 5. With `CC1C(O)N(c2cc(C(F)(F)F)ccn2)C(=O)N1C` (stereo not shown) [Compound 1.2, 4-hydroxy-1,5-dimethyl-3-[4-(trifluoromethyl)-2-pyridyl]imidazolidin-2-one] the “damage to plant score, AMARE” value was 5.

What follows are compounds tested on Setaria faberi (assay: Pre-emergence herbicidal activity (glasshouse)). Settings: application pre-emergence, 1000 g/Ha, evaluated after 13 days, scale 0-5.
Assay type: in vivo
Method: as §1, with “After” for “After 8 days”, “for one day (pre-emergence)” for “(post-emergence)”
`CCO[C@@H]1C(O)N(c2cc(C(C)(C)C)on2)C(=O)N1C` (single isomer, unassigned) [Compound 1.6] was tested, and the “damage to plant score, SETFA” value was 1. `CC1C(O)N(c2cc(C(F)(F)F)n(C)n2)C(=O)N1C` (stereo not shown) [Compound 1.5, 4-hydroxy-1,5-dimethyl-3-[1-methyl-5-(trifluoromethyl)pyrazol-3-yl]imidazolidin-2-one] was tested, and the “damage to plant score, SETFA” value was 4. `CC1C(O)N(c2cc(C(F)(F)F)ccn2)C(=O)N1C` (stereo not shown) [Compound 1.2, 4-hydroxy-1,5-dimethyl-3-[4-(trifluoromethyl)-2-pyridyl]imidazolidin-2-one] was tested, and the “damage to plant score, SETFA” value was 5.

Each compound was assayed on Zea mays (assay: Pre-emergence herbicidal activity (glasshouse)). Settings: application pre-emergence, 1000 g/Ha, evaluated after 13 days, scale 0-5.
Assay type: in vivo
Method: as §1, with “After” for “After 8 days”, “for one day (pre-emergence)” for “(post-emergence)”
`CCO[C@@H]1C(O)N(c2cc(C(C)(C)C)on2)C(=O)N1C` (single isomer, unassigned) [Compound 1.6] was tested, and the “damage to plant score, ZEAMX” value was 2. In the case of `CC1C(O)N(c2cc(C(F)(F)F)n(C)n2)C(=O)N1C` (stereo not shown) [Compound 1.5, 4-hydroxy-1,5-dimethyl-3-[1-methyl-5-(trifluoromethyl)pyrazol-3-yl]imidazolidin-2-one], the “damage to plant score, ZEAMX” value is reported as 4. With `CC1C(O)N(c2cc(C(F)(F)F)ccn2)C(=O)N1C` (stereo not shown) [Compound 1.2, 4-hydroxy-1,5-dimethyl-3-[4-(trifluoromethyl)-2-pyridyl]imidazolidin-2-one] the “damage to plant score, ZEAMX” value was 3.

— patent US20180092358A1, “HERBICIDAL MIXTURES” (Syngenta Participations AG, priority 2015, published 2018)
